Measured values: patent US6734185B2, “Pyrrolo[3,4-d]pyrimidines as corticotropin releasing factor (CRF) antagonists” (Bristol-Myers Squibb Pharma Company, priority 2000, dated 2004)
Structures can show the parent of a compound that is named as a salt.

melting point [°C]	Compound
218 to 222	Cc1nc(NC(C2CC2)C2CC2)c2c(C)[nH]c(-c3ccc(Cl)cc3Cl)c2n1 (as salt: HCl) [Example 6]
184 to 185	CCC(CC)Nc1nc(C)nc2c1C(C)(O)N=C2c1ccc(Cl)cc1Cl (centres unmarked) [Example 7, 7-(2,4-Dichloro-phenyl)-4-(1-ethyl-propylamino)-2,5-dimethyl-5H-pyrrolo[3,4-d]pyrimidin-5-ol]
